According to ChEMBL document CHEMBL4130363, “Synthesis and pharmacological evaluation of benzamide derivatives as potent and selective sigma-1 protein ligands” (Eur J Med Chem, 2017):

What was measured:
[1] = target: T1, 5-hydroxytryptamine receptor 1A (Homo sapiens) (UniProt P08908); experiment: Antagonist activity at recombinant human 5-HT1A assessed as inhibition of agonist-induced cAMP levels at 10 uM by HTRF assay; assay type: functional
T1 sequence (whole entry): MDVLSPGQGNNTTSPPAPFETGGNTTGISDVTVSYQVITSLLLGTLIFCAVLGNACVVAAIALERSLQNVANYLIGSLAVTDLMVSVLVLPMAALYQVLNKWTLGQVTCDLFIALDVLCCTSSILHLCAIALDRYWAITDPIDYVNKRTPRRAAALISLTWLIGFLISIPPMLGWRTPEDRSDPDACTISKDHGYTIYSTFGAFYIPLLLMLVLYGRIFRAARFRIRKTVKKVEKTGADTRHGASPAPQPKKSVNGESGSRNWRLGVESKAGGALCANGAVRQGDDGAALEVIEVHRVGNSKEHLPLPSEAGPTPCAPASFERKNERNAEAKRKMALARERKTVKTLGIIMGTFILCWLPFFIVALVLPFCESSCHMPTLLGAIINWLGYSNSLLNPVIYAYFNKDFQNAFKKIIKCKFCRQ

[2] = target: 5-hydroxytryptamine receptor 2B (Homo sapiens) (UniProt P41595); experiment: Agonist activity at recombinant human 5-HT2B at 10 uM by aequorin reporter based assay relative to agonist; assay type: functional
Chain of 5-hydroxytryptamine receptor 2B (Homo sapiens) (P41595 whole entry): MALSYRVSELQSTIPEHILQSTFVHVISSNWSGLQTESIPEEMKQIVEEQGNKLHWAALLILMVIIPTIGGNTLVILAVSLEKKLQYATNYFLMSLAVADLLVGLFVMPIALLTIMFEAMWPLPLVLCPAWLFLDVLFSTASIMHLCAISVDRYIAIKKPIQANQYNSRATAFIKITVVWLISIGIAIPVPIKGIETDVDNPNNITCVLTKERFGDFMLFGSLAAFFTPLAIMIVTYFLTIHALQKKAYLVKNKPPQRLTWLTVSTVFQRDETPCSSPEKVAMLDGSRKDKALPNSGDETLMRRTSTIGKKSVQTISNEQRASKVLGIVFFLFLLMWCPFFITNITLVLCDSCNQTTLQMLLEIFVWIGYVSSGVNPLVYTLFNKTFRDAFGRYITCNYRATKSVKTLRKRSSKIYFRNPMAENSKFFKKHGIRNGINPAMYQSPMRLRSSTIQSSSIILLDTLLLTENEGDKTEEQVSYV

[3] = target: 5-hydroxytryptamine receptor 6 (Homo sapiens) (UniProt P50406); experiment: Antagonist activity at recombinant human 5-HT6R assessed as inhibition of agonist-induced cAMP induction at 10 uM by HTRF assay; assay type: functional
Chain of 5-hydroxytryptamine receptor 6 (Homo sapiens) (P50406 whole entry): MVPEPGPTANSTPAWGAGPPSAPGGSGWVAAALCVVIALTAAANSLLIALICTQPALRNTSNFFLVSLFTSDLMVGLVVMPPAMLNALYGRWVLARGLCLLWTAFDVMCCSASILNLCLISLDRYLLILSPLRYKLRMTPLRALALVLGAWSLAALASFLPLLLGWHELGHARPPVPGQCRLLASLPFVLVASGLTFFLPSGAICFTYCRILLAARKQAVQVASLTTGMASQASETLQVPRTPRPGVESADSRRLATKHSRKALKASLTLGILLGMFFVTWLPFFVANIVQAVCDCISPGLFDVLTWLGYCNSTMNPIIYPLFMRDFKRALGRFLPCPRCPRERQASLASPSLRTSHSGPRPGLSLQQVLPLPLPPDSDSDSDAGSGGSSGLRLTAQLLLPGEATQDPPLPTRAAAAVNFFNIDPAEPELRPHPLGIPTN

[4] = target: Beta-1 adrenergic receptor (Homo sapiens) (UniProt P08588); experiment: Antagonist activity at recombinant human beta-1 adrenergic receptor assessed as inhibition of agonist-induced cAMP induction at 10 uM by HTRF assay; assay type: functional
Chain of Beta-1 adrenergic receptor (Homo sapiens) (P08588 whole entry, looked up): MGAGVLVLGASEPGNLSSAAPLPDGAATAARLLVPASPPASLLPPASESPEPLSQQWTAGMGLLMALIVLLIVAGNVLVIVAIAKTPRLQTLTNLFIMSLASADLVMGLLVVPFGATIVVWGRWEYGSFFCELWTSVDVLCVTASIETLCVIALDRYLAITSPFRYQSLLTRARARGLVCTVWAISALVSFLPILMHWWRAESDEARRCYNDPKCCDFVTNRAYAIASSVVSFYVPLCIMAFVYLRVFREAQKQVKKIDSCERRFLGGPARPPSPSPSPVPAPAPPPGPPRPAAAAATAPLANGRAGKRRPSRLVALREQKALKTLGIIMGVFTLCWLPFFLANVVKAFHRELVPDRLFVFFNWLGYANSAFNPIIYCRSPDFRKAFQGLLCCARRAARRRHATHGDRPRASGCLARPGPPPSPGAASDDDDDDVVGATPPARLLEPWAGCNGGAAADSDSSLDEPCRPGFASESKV

[5] = target: T2, Alpha-2A adrenergic receptor (Homo sapiens) (UniProt P08913); experiment: Agonist activity at recombinant human alpha-2a adrenergic receptor at 10 uM by GTPgamma[35S] binding-based assay relative to agonist; assay type: functional
T2 sequence (whole entry): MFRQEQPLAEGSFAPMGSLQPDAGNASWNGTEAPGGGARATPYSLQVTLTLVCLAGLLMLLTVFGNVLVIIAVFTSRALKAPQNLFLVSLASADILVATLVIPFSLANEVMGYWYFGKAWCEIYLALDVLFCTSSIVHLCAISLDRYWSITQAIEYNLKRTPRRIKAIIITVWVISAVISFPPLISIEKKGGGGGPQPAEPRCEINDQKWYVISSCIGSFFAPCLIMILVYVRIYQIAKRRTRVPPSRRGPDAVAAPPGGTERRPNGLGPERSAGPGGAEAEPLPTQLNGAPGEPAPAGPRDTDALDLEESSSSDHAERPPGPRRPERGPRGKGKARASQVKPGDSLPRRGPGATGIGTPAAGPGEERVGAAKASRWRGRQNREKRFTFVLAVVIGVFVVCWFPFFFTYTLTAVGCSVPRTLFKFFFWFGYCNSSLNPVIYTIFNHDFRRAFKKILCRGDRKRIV

[6] = target: D(2) dopamine receptor (Homo sapiens) (UniProt P14416); experiment: Antagonist activity at recombinant human dopamine D2L receptor assessed as inhibition of agonist-induced effect at 10 uM by GTPgamma[35S] binding-based assay
Chain of D(2) dopamine receptor (Homo sapiens) (P14416 whole entry): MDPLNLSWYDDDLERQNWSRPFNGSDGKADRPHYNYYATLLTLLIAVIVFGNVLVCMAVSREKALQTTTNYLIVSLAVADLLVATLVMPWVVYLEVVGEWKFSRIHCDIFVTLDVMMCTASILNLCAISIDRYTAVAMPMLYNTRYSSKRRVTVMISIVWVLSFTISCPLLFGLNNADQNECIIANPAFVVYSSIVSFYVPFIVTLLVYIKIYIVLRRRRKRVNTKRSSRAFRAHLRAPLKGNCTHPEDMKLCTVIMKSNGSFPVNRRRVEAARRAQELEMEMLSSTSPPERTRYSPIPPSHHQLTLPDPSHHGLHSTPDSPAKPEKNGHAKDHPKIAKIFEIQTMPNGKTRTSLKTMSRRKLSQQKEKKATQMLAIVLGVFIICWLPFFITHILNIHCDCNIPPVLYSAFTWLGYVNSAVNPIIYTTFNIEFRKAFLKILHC

[7] = target: T3, Endothelin-1 receptor (Homo sapiens) (UniProt P25101); experiment: Agonist activity at recombinant human ETA receptor at 10 uM by aequorin reporter based assay relative to agonist; assay type: functional
T3 sequence (whole entry): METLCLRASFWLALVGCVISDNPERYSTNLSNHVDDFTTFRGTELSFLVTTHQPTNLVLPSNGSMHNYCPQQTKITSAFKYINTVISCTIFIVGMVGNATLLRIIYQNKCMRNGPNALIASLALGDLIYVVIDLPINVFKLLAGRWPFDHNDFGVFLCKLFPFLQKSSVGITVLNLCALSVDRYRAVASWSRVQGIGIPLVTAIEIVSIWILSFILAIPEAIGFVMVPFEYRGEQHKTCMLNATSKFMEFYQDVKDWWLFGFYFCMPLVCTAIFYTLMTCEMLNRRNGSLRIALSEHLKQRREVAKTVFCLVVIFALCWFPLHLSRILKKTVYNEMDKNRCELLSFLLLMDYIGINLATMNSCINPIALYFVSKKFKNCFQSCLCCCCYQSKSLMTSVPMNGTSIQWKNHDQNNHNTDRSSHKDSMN

[8] = target: Histamine H2 receptor (Homo sapiens) (UniProt P25021); experiment: Agonist activity at recombinant human histamine H2 receptor assessed as induction of cAMP levels at 10 uM by HTRF assay relative to agonist; assay type: functional
Chain of Histamine H2 receptor (Homo sapiens) (P25021 whole entry): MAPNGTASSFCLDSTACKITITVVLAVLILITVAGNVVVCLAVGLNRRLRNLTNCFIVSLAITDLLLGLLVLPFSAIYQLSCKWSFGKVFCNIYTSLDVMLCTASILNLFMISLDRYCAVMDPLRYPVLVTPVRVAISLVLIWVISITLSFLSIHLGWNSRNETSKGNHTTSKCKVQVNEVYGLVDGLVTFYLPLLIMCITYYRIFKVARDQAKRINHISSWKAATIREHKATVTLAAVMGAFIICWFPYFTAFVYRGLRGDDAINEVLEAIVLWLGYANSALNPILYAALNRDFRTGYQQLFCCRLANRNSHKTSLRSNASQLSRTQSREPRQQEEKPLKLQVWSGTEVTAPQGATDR

[9] = target: Histamine H1 receptor (Homo sapiens) (UniProt P35367); experiment: Antagonist activity at recombinant human histamine H1 receptor assessed as inhibition of agonist-induced effect at 10 uM by aequorin reporter based assay; assay type: functional
Chain of Histamine H1 receptor (Homo sapiens) (P35367 whole entry): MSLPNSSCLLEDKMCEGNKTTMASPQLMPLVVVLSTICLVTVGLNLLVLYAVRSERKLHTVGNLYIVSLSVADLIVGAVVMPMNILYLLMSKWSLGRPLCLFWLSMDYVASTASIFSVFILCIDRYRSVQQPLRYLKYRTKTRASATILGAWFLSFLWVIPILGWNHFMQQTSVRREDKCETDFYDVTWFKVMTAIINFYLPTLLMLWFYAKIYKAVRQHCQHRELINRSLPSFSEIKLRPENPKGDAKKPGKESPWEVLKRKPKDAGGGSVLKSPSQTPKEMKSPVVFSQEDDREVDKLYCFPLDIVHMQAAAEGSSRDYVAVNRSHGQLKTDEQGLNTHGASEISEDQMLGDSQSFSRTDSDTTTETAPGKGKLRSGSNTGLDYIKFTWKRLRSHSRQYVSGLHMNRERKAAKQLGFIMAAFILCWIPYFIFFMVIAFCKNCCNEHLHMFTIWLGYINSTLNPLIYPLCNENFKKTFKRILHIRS

[10] = target: T4, Muscarinic acetylcholine receptor M1 (Homo sapiens) (UniProt P11229); experiment: Agonist activity at recombinant human muscarinic M1 receptor at 10 uM by aequorin reporter based assay relative to agonist; assay type: functional
T4 sequence (whole entry): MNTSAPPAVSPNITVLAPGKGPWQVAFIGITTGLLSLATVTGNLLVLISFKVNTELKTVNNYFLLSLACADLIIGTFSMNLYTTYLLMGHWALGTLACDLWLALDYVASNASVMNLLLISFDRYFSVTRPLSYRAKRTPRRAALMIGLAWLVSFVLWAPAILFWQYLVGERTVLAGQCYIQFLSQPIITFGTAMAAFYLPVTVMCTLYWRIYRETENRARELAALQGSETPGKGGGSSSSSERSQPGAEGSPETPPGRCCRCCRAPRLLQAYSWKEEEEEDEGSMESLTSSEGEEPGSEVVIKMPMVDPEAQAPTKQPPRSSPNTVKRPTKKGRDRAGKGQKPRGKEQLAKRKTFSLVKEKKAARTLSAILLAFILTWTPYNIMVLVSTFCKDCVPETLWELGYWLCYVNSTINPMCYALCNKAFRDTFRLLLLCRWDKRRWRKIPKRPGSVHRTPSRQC

[11] = target: T4, Muscarinic acetylcholine receptor M1 (Homo sapiens); experiment: Antagonist activity at recombinant human muscarinic M1 receptor assessed as inhibition of agonist-induced effect at 10 uM by aequorin reporter based assay; assay type: functional
[12] = target: Muscarinic acetylcholine receptor M3 (Homo sapiens) (UniProt P20309); experiment: Antagonist activity at recombinant human muscarinic M3 receptor assessed as inhibition of agonist-induced effect at 10 uM by aequorin reporter based assay; assay type: functional
Chain of Muscarinic acetylcholine receptor M3 (Homo sapiens) (P20309 whole entry, looked up): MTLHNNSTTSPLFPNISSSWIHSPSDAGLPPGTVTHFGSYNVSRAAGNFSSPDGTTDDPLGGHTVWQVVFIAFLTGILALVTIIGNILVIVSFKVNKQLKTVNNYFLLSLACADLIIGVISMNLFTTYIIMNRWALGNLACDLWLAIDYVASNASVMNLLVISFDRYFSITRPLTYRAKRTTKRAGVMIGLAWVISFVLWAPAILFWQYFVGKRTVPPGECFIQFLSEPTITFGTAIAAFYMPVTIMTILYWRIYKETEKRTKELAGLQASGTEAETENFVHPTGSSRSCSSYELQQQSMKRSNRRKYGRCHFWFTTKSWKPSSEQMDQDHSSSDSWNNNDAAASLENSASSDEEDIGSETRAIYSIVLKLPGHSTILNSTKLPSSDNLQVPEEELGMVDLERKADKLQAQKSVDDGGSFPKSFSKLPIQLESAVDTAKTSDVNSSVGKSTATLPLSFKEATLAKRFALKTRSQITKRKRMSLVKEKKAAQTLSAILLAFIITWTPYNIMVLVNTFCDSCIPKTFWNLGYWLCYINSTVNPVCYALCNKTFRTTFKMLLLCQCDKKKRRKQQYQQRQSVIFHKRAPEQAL

[13] = target: Kappa-type opioid receptor (Homo sapiens) (UniProt P41145); experiment: Agonist activity at recombinant human kappa-type opioid receptor at 10 uM by GTPgamma[35S] binding-based assay relative to agonist; assay type: functional
Chain of Kappa-type opioid receptor (Homo sapiens) (P41145 whole entry): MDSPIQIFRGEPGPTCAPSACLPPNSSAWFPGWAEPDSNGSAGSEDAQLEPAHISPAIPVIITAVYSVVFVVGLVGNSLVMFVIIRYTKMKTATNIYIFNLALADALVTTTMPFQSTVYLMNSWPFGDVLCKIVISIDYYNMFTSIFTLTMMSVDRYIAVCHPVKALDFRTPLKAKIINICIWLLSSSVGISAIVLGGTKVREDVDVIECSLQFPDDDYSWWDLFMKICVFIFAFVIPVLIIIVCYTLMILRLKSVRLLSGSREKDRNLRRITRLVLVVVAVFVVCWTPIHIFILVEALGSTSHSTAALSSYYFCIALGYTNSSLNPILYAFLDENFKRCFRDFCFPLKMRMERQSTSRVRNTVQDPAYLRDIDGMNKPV

[14] = target: Somatostatin receptor type 4 (Homo sapiens) (UniProt P31391); experiment: Antagonist activity at human somatostatin receptor 4 assessed as inhibition of agonist-induced effect at 10 uM by GTPgamma[35S] binding-based assay; assay type: functional
Chain of Somatostatin receptor type 4 (Homo sapiens) (P31391 whole entry): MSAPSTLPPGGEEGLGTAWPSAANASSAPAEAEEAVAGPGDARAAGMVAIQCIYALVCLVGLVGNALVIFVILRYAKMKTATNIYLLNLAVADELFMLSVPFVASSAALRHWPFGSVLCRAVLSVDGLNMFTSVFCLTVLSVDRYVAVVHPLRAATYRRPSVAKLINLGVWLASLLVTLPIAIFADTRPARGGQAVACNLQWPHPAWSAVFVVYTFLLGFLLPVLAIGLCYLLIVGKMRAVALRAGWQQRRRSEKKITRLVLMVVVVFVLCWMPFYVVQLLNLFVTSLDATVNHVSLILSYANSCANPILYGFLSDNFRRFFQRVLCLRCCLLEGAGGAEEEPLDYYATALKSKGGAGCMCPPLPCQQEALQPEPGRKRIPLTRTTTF

[15] = target: Vasopressin V1a receptor (Homo sapiens) (UniProt P37288); experiment: Agonist activity at recombinant human V1A receptor at 10 uM by aequorin reporter based assay relative to agonist; assay type: functional
Chain of Vasopressin V1a receptor (Homo sapiens) (P37288 whole entry, looked up): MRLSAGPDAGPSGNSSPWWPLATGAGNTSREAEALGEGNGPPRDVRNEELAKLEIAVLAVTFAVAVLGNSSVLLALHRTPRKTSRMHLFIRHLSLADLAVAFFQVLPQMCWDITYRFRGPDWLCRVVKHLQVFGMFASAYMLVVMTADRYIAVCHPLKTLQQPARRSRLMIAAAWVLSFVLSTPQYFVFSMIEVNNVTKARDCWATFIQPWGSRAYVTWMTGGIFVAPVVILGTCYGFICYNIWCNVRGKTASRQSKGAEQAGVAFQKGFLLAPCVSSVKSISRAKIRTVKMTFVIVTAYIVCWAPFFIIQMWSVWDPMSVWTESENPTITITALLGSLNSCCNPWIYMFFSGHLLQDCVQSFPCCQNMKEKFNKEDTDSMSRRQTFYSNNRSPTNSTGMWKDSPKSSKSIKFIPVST

SMILES | inhibition [1] [%] | Activity [2] [%] | inhibition [3] [%] | inhibition [4] [%] | Activity [5] [%] | inhibition [6] [%] | Activity [7] [%] | Activity [8] [%] | inhibition [9] [%] | Activity [10] [%] | inhibition [11] [%] | inhibition [12] [%] | Activity [13] [%] | inhibition [14] [%] | Activity [15] [%]
CN(CCCNC(=O)c1ccc([N+](=O)[O-])cc1)Cc1ccccc1 | -6 | -2 | -4 | 6 | -5 | 15 | -1 | -7 | 21 | 0 | 85 | 30 | 2 | 15 | -1
CN(CCNC(=O)c1ccc([N+](=O)[O-])cc1)Cc1ccccc1 | 20 | -1 | 3 | -2 | -1 | 30 | -1 | 9 | 26 | 0 | 31 | 21 | 8 | 30 | 0
CN(CCNC(=O)c1ccc(C#N)cc1)Cc1ccccc1 | 16 | -4 | -2 | 9 | -1 | 55 | -1 | -3 | 35 | 0 | 6 | 17 | 5 | 34 | 0
CN(CCCNC(=O)c1ccc(Br)cc1)Cc1ccccc1 | -5 | 2 | -1 | 9 | 3 | 31 | 1 | -8 | 28 | 0 | 89 | 11 | 3 | 4 | 1
CN(CCCNC(=O)c1ccc(Cl)cc1)CCc1ccccc1 | 17 | 38 | 3 | 11 | -3 | 36 | -1 | 15 | 90 | 0 | 86 | 40 | -1 | -3 | 0
CN(CCCNC(=O)c1ccc(C(F)(F)F)cc1)Cc1ccccc1 | 1 | -2 | 1 | 12 | -2 | 30 | -1 | -7 | 24 | -1 | 88 | 36 | 1 | 17 | 0
CCCc1ccc(C(=O)NCCCN(C)Cc2ccccc2)cc1 | -6 | -3 | 1 | 11 | 1 | 22 | -1 | 1 | 25 | 0 | 98 | 41 | -2 | 31 | 0
CN(CCNC(=O)c1ccc(Cl)cc1)Cc1ccccc1 | 3 | 0 | -3 | 7 | -3 | 90 | -1 | -7 | 32 | 0 | 69 | 35 | 5 | 21 | 0

Results, then the compound that gave them:

inhibition [1] [%] | Activity [2] [%] | inhibition [3] [%] | inhibition [4] [%] | Activity [5] [%] | inhibition [6] [%] | Activity [7] [%] | Activity [8] [%] | inhibition [9] [%] | Activity [10] [%] | inhibition [11] [%] | inhibition [12] [%] | Activity [13] [%] | inhibition [14] [%] | Activity [15] [%] | SMILES
18 | -2 | -1 | -5 | 0 | 22 | 0 | 10 | 57 | 0 | 34 | 2 | 7 | 25 | 0 | COc1cccc(C(=O)NCCCN(C)Cc2ccccc2)c1
7 | -2 | -2 | 12 | -3 | 49 | -1 | -3 | 74 | 0 | 96 | 43 | 6 | 21 | -1 | CN(CCCNC(=O)c1cccc(Br)c1)Cc1ccccc1
-1 | 1 | -6 | 8 | -2 | 44 | 0 | -10 | 34 | 0 | 89 | 23 | 2 | 20 | 1 | CN(CCCNC(=O)c1ccc(Cl)cc1)Cc1ccccc1
5 | 2 | 0 | -1 | -1 | 13 | 0 | 9 | 12 | 0 | 20 | 0 | 8 | 25 | 0 | COc1ccc(C(=O)NCCCN(C)Cc2ccccc2)cc1
